Measured values from ChEMBL document CHEMBL3244324, “Synthesis of analogues of N-(2-chloroethyl)-N'-(trans-4-methylcyclohexyl)-N-nitrosourea for evaluation as anticancer agents” (J Med Chem, 1977).

How the values were obtained:
[1] = tested on: L1210; experiment: Antitumor activity against mouse L1210 cells allografted in ip dosed BDF1 mouse assessed as increase of life span of host measured up to 45 days; format: functional; settings: 1080 h
[2] = Therapeutic index, ratio of LD10 for BDF1 mouse to ED50 for mouse L1210 cells allografted in ip dosed BDF1 mouse; format: organism-based; settings: in vivo, read-out: TI
[3] = tested on: Mus musculus; experiment: Toxicity in ip dosed BDF1 mouse; format: organism-based; settings: in vivo
[4] = Octanol-water partition coefficient, log P of the compound; format: physicochemical
[5] = Octanol-water partition coefficient, log P of the compound at pH 7.4; format: physicochemical

With `CC(=O)OC[C@H]1CC[C@H](NC(=O)N(CCCl)N=O)CC1` as the compound, how does the ED50 [1] read?
The ED50 was 14 mg/kg.

And the selectivity ratio [2]?
The selectivity ratio was 0.5.

What about the LD10 [3] of the same compound?
Its LD10 is 28 mg/kg.

What about the logP ([4]; read-out: logP) of the same compound?
The logP was 3.1.

With `C[C@H]1S(=O)(=O)C[C@@H](NC(=O)N(CCCl)N=O)CS1(=O)=O` as the compound, how does the ED50 [1] read?
The ED50 was 18 mg/kg.

What about the selectivity ratio [2] of the same compound?
The selectivity ratio was 0.5.

And the LD10 [3]?
Its LD10 is 36 mg/kg.

What about the logP ([4]; read-out: logP) of the same compound?
The logP was -0.4.

Which results are given for `C[C@H]1CC[C@H](NC(=O)N(CCF)N=O)CC1`?
ED50 [1]: 25 mg/kg; selectivity ratio [2]: 0.57; LD10 [3]: 44 mg/kg; logP ([4]; read-out: logP): 2.7

What does the source list for `O=NN(CCCl)C(=O)N[C@H]1CC[C@@H](C(=O)O)CC1`?
ED50 [1]: 16 mg/kg; selectivity ratio [2]: 0.62; logD [5]: -1.1; LD10 [3]: 26 mg/kg

Which ED50 [1] does the source give for `C[C@@H]1CCC[C@H](NC(=O)N(CCCl)N=O)C1` (relative stereo) here?
Its ED50 is 45 mg/kg.

What about the selectivity ratio [2] of the same compound?
Its selectivity ratio is 0.38.

What about the LD10 [3] of the same compound?
Its LD10 is 120 mg/kg.

What about the logP ([4]; read-out: logP) of the same compound?
The logP was 3.3.

What does the source list for `O=NN(CCCl)C(=O)N[C@H]1CC[C@@H](CC(=O)O)CC1`?
ED50 [1]: 27 mg/kg; selectivity ratio [2]: 0.53; logD [5]: -0.6; LD10 [3]: 51 mg/kg

Which results are given for `C[C@H]1CCC[C@H](NC(=O)N(CCCl)N=O)C1` (relative stereo)?
ED50 [1]: 53 mg/kg; selectivity ratio [2]: 0.48; LD10 [3]: 110 mg/kg; logP [4]: 3.3

For `O=NN(CCCl)C(=O)N[C@H]1CC[C@H](C(=O)O)CC1`, which ED50 [1] is on record?
The ED50 was 17 mg/kg.

What about the selectivity ratio [2] of the same compound?
Its selectivity ratio is 0.57.

What about the logD [5] of the same compound?
The logD was -1.1.

And the LD10 [3]?
The LD10 was 30 mg/kg.

For `CCOC(=O)[C@@H]1CCC[C@H](NC(=O)N(CCCl)N=O)C1` (relative stereo), which ED50 [1] is on record?
The ED50 was 28 mg/kg.

And the selectivity ratio [2]?
The selectivity ratio was 0.56.

And the LD10 [3]?
Its LD10 is 50 mg/kg.

And the logP ([4]; read-out: logP)?
Its logP is 3.1.

What does the source list for `O=NN(CCCl)C(=O)N[C@H]1CCCC[C@@H]1Cl` (relative stereo)?
ED50 [1]: 36 mg/kg; selectivity ratio [2]: 0.63; LD10 [3]: 57 mg/kg; logP ([4]; read-out: logP): 2.7

What does the source list for `C[C@H]1S(=O)(=O)C[C@H](NC(=O)N(CCCl)N=O)CS1(=O)=O`?
ED50 [1]: 19 mg/kg; selectivity ratio [2]: 0.37; LD10 [3]: 51 mg/kg; logP ([4]; read-out: logP): -0.4

For `CCOC(=O)[C@H]1CC[C@H](NC(=O)N(CCCl)N=O)CC1`, which ED50 [1] is on record?
Its ED50 is 17 mg/kg.

What about the selectivity ratio [2] of the same compound?
Its selectivity ratio is 0.52.

What about the LD10 [3] of the same compound?
Its LD10 is 33 mg/kg.

What about the logP ([4]; read-out: logP) of the same compound?
The logP was 3.1.

What does the source list for `CO[C@H]1CC[C@H](NC(=O)N(CCCl)N=O)CC1`?
ED50 [1]: 23 mg/kg; selectivity ratio [2]: 0.52; LD10 [3]: 44 mg/kg; logP ([4]; read-out: logP): 2.4

With `O=NN(CCCl)C(=O)NC1CCCCC1` [LOMUSTINE] as the compound, how does the ED50 [1] read?
The ED50 was 37 mg/kg.

And the selectivity ratio [2]?
The selectivity ratio was 0.77.

What about the LD10 [3] of the same compound?
The LD10 was 48 mg/kg.

What about the logP ([4]; read-out: logP) of the same compound?
The logP was 2.8.

What does the source list for `COC(=O)[C@H]1CC[C@H](NC(=O)N(CCCl)N=O)CC1`?
ED50 [1]: 14 mg/kg; selectivity ratio [2]: 0.54; LD10 [3]: 26 mg/kg; logP ([4]; read-out: logP): 2.6

Which ED50 [1] does the source give for `CO[C@H]1CC[C@@H](NC(=O)N(CCCl)N=O)CC1` here?
The ED50 was 20 mg/kg.

What about the selectivity ratio [2] of the same compound?
Its selectivity ratio is 0.53.

And the LD10 [3]?
The LD10 was 38 mg/kg.

What about the logP ([4]; read-out: logP) of the same compound?
The logP was 2.4.

With `O=NN(CCCl)C(=O)N[C@H]1CC[C@@H](O)CC1` as the compound, how does the ED50 [1] read?
Its ED50 is 22 mg/kg.

What about the selectivity ratio [2] of the same compound?
Its selectivity ratio is 0.48.

And the LD10 [3]?
Its LD10 is 46 mg/kg.

What about the logP ([4]; read-out: logP) of the same compound?
Its logP is 1.1.

For `O=NN(CCF)C(=O)N[C@H]1CC[C@H](C(=O)O)CC1`, which ED50 [1] is on record?
The ED50 was 30 mg/kg.

What about the logD [5] of the same compound?
The logD was -1.7.

And the LD10 [3]?
The LD10 was 56 mg/kg.

With `C[C@H]1SC[C@@H](NC(=O)N(CCCl)N=O)CS1` as the compound, how does the ED50 [1] read?
The ED50 was 16 mg/kg.

What about the selectivity ratio [2] of the same compound?
Its selectivity ratio is 0.53.

What about the LD10 [3] of the same compound?
The LD10 was 31 mg/kg.

What about the logP ([4]; read-out: logP) of the same compound?
The logP was 2.6.

Which results are given for `O=NN(CCF)C(=O)N[C@H]1CC[C@@H](C(=O)O)CC1`?
ED50 [1]: 30 mg/kg; logD [5]: -1.7; LD10 [3]: 29 mg/kg

Which results are given for `O=NN(CCCl)C(=O)N[C@H]1CC[C@H](C[C@H]2CC[C@H](NC(=O)N(CCCl)N=O)CC2)CC1`?
ED50 [1]: 96 mg/kg; selectivity ratio [2]: 0.38; LD10 [3]: 250 mg/kg; logP ([4]; read-out: logP): 3.1

Which results are given for `O=NN(CCCl)C(=O)NC(C(=O)O)C1CCCCC1` (stereo not given)?
ED50 [1]: 50 mg/kg; selectivity ratio [2]: 0.63; logD [5]: 0; LD10 [3]: 73 mg/kg

Which ED50 [1] does the source give for `CC(=O)OC[C@H]1CC[C@H](NC(=O)N(CCF)N=O)CC1` here?
The ED50 was 45 mg/kg.

And the selectivity ratio [2]?
The selectivity ratio was 0.79.

What about the LD10 [3] of the same compound?
The LD10 was 57 mg/kg.

And the logP ([4]; read-out: logP)?
Its logP is 2.5.

For `C[C@H]1CC[C@H](NC(=O)N(CCCl)N=O)CC1`, which ED50 [1] is on record?
The ED50 was 18 mg/kg.

What about the selectivity ratio [2] of the same compound?
The selectivity ratio was 0.43.

What about the LD10 [3] of the same compound?
The LD10 was 42 mg/kg.

And the logP ([4]; read-out: logP)?
Its logP is 3.3.

For `CCCCCC(C)NC(=O)N(CCCl)N=O` (stereo not given), which ED50 [1] is on record?
Its ED50 is 27 mg/kg.

And the LD10 [3]?
The LD10 was 57 mg/kg.

And the logP ([4]; read-out: logP)?
The logP was 3.8.

For `O=NN(CCCl)C(=O)N[C@H]1CC[C@H](NC(=O)N(CCCl)N=O)CC1`, which ED50 [1] is on record?
The ED50 was 71 mg/kg.

And the selectivity ratio [2]?
The selectivity ratio was 0.26.

What about the LD10 [3] of the same compound?
Its LD10 is 270 mg/kg.

And the logP ([4]; read-out: logP)?
Its logP is 2.7.

What does the source list for `O=NN(CCCl)C(=O)N[C@H]1CCCC[C@H]1Cl` (relative stereo)?
ED50 [1]: 54 mg/kg; selectivity ratio [2]: 0.56; LD10 [3]: 96 mg/kg; logP ([4]; read-out: logP): 2.7

Which results are given for `O=NN(CCCl)C(=O)NCCCl` [CARMUSTINE]?
ED50 [1]: 20 mg/kg; selectivity ratio [2]: 0.49; LD10 [3]: 41 mg/kg; logP ([4]; read-out: logP): 1.5

Which results are given for `O=NN(CCCl)C(=O)N[C@H]1CC[C@H](CC(=O)O)CC1`?
ED50 [1]: 12 mg/kg; selectivity ratio [2]: 0.3; logD [5]: -0.6; LD10 [3]: 40 mg/kg

With `O=COC[C@H]1CC[C@H](NC(=O)N(CCCl)N=O)CC1` as the compound, how does the ED50 [1] read?
The ED50 was 10 mg/kg.

And the selectivity ratio [2]?
Its selectivity ratio is 0.45.

What about the LD10 [3] of the same compound?
The LD10 was 22 mg/kg.

What about the logP ([4]; read-out: logP) of the same compound?
Its logP is 2.6.

Which results are given for `O=NN(CCCl)C(=O)N[C@H]1CC[C@H](CCl)CC1`?
ED50 [1]: 43 mg/kg; selectivity ratio [2]: 0.69; LD10 [3]: 62 mg/kg; logP ([4]; read-out: logP): 3.7

Which ED50 [1] does the source give for `CC(=O)O[C@H]1CC[C@H](NC(=O)N(CCCl)N=O)CC1` here?
The ED50 was 18 mg/kg.

What about the selectivity ratio [2] of the same compound?
The selectivity ratio was 0.4.

And the LD10 [3]?
The LD10 was 45 mg/kg.

What about the logP ([4]; read-out: logP) of the same compound?
Its logP is 2.6.

For `O=NN(CCCl)C(=O)N[C@H]1CC[C@@H](NC(=O)N(CCCl)N=O)CC1`, which ED50 [1] is on record?
The ED50 was 40 mg/kg.

What about the selectivity ratio [2] of the same compound?
The selectivity ratio was 0.48.

What about the LD10 [3] of the same compound?
The LD10 was 84 mg/kg.

What about the logP ([4]; read-out: logP) of the same compound?
Its logP is 2.7.

Which results are given for `O=NN(CCCl)C(=O)N[C@H]1CC[C@H](O)CC1`?
ED50 [1]: 14 mg/kg; selectivity ratio [2]: 0.4; LD10 [3]: 42 mg/kg; logP ([4]; read-out: logP): 1

Which ED50 [1] does the source give for `O=NN(CCCl)C(=O)N[C@H]1CCC[C@@H](C(=O)O)C1` (relative stereo) here?
The ED50 was 21 mg/kg.

What about the selectivity ratio [2] of the same compound?
The selectivity ratio was 0.62.

And the logD [5]?
The logD was -1.1.

What about the LD10 [3] of the same compound?
Its LD10 is 34 mg/kg.

What does the source list for `CC(=O)O[C@H]1CC[C@H](NC(=O)N(CCF)N=O)CC1`?
ED50 [1]: 18 mg/kg; selectivity ratio [2]: 0.5; LD10 [3]: 36 mg/kg; logP ([4]; read-out: logP): 2

Which ED50 [1] does the source give for `COC(=O)[C@H]1CC[C@@H](NC(=O)N(CCCl)N=O)CC1` here?
The ED50 was 15 mg/kg.

And the selectivity ratio [2]?
The selectivity ratio was 0.28.

What about the LD10 [3] of the same compound?
The LD10 was 54 mg/kg.

What about the logP ([4]; read-out: logP) of the same compound?
The logP was 2.6.
